# What was measured:
# [1] = target: T1, Estrogen receptor (Rattus norvegicus) (UniProt P06211+Q62986); test: Estrogenic activity as percent of control at 5 ug subcutaneous dose; type: functional
# [2] = target: T1, Estrogen receptor (Rattus norvegicus); test: Estrogenic activity as percent of control at 50 ug subcutaneous dose; type: functional
# [3] = target: T1, Estrogen receptor (Rattus norvegicus); test: Estrogenic activity as percent of control at 100 ug subcutaneous dose; type: functional
# [4] = target: T1, Estrogen receptor (Rattus norvegicus); test: Anti-uterotrophic activity in immature rats at 100 ug; type: functional
# [5] = target: T1, Estrogen receptor (Rattus norvegicus); test: Anti-uterotrophic activity in immature rats at 50 ug; type: functional
# [6] = target: T1, Estrogen receptor (Rattus norvegicus); test: Anti-uterotrophic activity in immature rats at 5 ug; type: functional
# [7] = target: T1, Estrogen receptor (Rattus norvegicus); test: Estrogenic activity in immature rats and assayed as uterine weight gain at 0.05 ug subcutaneous dose; type: functional
# [8] = target: T1, Estrogen receptor (Rattus norvegicus); test: Estrogenic activity in immature rats and assayed as uterine weight gain at 100 ug subcutaneous dose; type: functional
# [9] = target: T1, Estrogen receptor (Rattus norvegicus); test: Estrogenic activity in immature rats and assayed as uterine weight gain at 5 ug subcutaneous dose; type: functional
# [10] = target: T1, Estrogen receptor (Rattus norvegicus); test: Estrogenic activity in immature rats and assayed as uterine weight gain at 50 ug subcutaneous dose; type: functional
# [11] = target: T1, Estrogen receptor (Rattus norvegicus); test: Antiuterotrophic activity in immature rats at 100 ug; type: functional
# [12] = target: T1, Estrogen receptor (Rattus norvegicus); test: Antiuterotrophic activity in immature rats at 50 ug; type: functional
# [13] = target: T1, Estrogen receptor (Rattus norvegicus); test: Antiuterotrophic activity in immature rats at 5 ug; type: functional
# [14] = target: T1, Estrogen receptor (Rattus norvegicus)
# Rattus norvegicus = organism: Rattus norvegicus; test: Antiimplantation activity in sperm-positive female albino rats mated to coeval males of proven fertility; type: functional
# [15] = target: T1, Estrogen receptor (Rattus norvegicus); test: Estrogenic activity as percent of control at 500 ug subcutaneous dose; type: functional
# [16] = target: T1, Estrogen receptor (Rattus norvegicus); test: Estrogenic activity in immature rats and assayed as uterine weight gain at 500 ug subcutaneous dose; type: functional
Control [1] [%],Control [2] [%],Control [3] [%],Uterine wet weight [4],inhibition [4] [%],Uterine wet weight [5],Uterine wet weight [6],inhibition [6] [%],Uterine wet weight [7],Uterine wet weight [8],Uterine wet weight [9],Uterine wet weight [10],Stimulation [11] [%],Stimulation [12] [%],Stimulation [13] [%],Uterine wet weight [14],Compound,MED (Rattus norvegicus) [mg/kg],further results
222,286,303,46.4,40.3,52.6,52.7,28.7,15.8,51.4,37.8,48.6,68,77,77,25.8,COc1ccc2c(c1)OC(C)(C)C(c1ccccc1)C2c1ccc(OCCN2CCCC2)cc1 (stereo in doubt; form 2),–,inhibition [5]: 28.7%
–,–,–,–,–,–,–,–,–,–,–,–,–,–,–,–,COc1ccc2c(c1)OC(C)(C)C(c1ccccc1)C2c1ccc(OCCN2CCCC2)cc1 (stereo in doubt; form 2) [ORMELOXIFENE],0.15,–
–,–,–,–,–,–,–,–,–,–,–,–,–,–,–,–,COc1ccc2c(c1)CCC(c1ccccc1)=C2c1ccc(OCCN2CCCC2)cc1 [NAFOXIDINE],–,"minimal effective dose (Rattus norvegicus; Rattus norvegicus, read-out: MED): 0.1 mg/kg"
187,238,238,42.3,28.4,55.7,52.3,1.9,16.2,40.4,31.8,40.5,80,105,99,16.8,COc1ccc2c(c1)OC(C)(C)C(c1ccccc1)C2c1ccc(OCCN2CCCC2)cc1 (stereo in doubt; form 1),–,Control [15]: 267%; Uterine wet weight [16]: 45.4
–,–,–,–,–,–,–,–,–,–,–,–,–,–,–,–,COc1ccc2c(c1)OC(C)(C)C(c1ccccc1)C2c1ccc(OCCN2CCCC2)cc1 (stereo in doubt; form 1) [ORMELOXIFENE],5,–
–,–,–,–,–,–,–,–,–,–,–,–,–,–,–,–,COc1ccc2c(c1)OC(C)(C)C(c1ccccc1)C2c1ccc(OCCN2CCCC2)cc1 (racemic) [ORMELOXIFENE],0.25,–
174,281,288,56,16.7,60.3,52.5,23.8,16.6,49,29.5,47.7,87,94,82,16.3,COc1ccc2c(c1)OC(C)(C)C(c1ccccc1)C2c1ccc(OCCN2CCCC2)cc1 (racemic),–,inhibition [5]: 8.1%

# — ChEMBL document CHEMBL1123448, “Studies in antifertility agents. 50. Stereoselective binding of d- and l-centchromans to estrogen receptors and their antifertility activity” (1986)
